According to patent publication US20240174647A1 (NEURON23, INC., priority 2022, published 2024):

target: wt human LRRK2, catalytic site (Homo sapiens (Human), UniProt Q5S007); test: TR-FRET LanthaScreen Tb Kinase Activity Assay (LRRK2 kinase inhibition); format: biochemical; details: 2 nM wt human LRRK2, 400 nM fluorescein-ERM (LRRKtide) peptide, 38 μM ATP, 120 minutes at room temperature
In short: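 LanthaScreen TR-FRET with 2 nM wt human LRRK2 catalytic site, 400 nM fluorescein-ERM (LRRKtide) peptide and 38 µM ATP in Kinase Buffer A; 120 min at room temperature. Phosphorylation detected with EDTA and Tb-anti-pLRRKtide after 60 min; IC50 from emission ratios.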

Chain of wt human LRRK2, catalytic site (Q5S007 1879-2138): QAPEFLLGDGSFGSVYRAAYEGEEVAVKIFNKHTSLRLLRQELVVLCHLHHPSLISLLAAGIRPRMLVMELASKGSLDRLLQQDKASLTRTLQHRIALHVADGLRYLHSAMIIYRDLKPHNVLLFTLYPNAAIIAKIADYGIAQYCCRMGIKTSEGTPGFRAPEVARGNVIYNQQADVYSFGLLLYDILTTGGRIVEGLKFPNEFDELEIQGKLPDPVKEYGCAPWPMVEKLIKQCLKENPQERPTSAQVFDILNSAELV

Compound	IC50
CNc1nc(Nc2cccc3c2cnn3CC(F)F)ncc1C(F)(F)F [Example 94, N2-(1-(2,2-difluoroethyl)-1H-indazol-4-yl)-N4-methyl-5-(trifluoromethyl)pyrimidine-2,4-diamine]	< 50 nM
CNc1nc(Nc2cccc3c2cnn3C(C)(C)C#N)nc2[nH]cnc12 [Example 202, 2-methyl-2-[4-[[6-(methylamino)-9H-purin-2-yl]amino]indazol-1-yl]propanenitrile]	< 50 nM
CCNc1nc(Nc2cccc3c2cnn3C(C)(C)C#N)nc2[nH]cc(Cl)c12 [Example 156, 2-(4-((5-chloro-4-(ethylamino)-7H-pyrrolo[2,3-d]pyrimidin-2-yl)amino)-1H-indazol-1-yl)-2-methylpropanenitrile]	< 50 nM
CNc1nc(Nc2cn(CC#N)c3cnccc23)ncc1C(F)(F)F [Example 131, 2-[3-[[4-(methylamino)-5-(trifluoromethyl)pyrimidin-2-yl]amino]pyrrolo[2,3-c]pyridin-1-yl]acetonitrile]	< 50 nM
CNc1nc(Nc2cccc3c2cnn3CC(C)(C)O)nc2[nH]nc(Cl)c12 [Example 183, 1-[4-[[3-chloro-4-(methylamino)-1H-pyrazolo [3,4-d]pyrimidin-6-yl]amino]indazol-1-yl]-2-methyl-propan-2-ol]	< 50 nM
CCNc1nc(Nc2cccc3c2cnn3S(C)(=O)=O)ncc1Cl [Example 152, 5-chloro-N4-ethyl-N^2-(1-(methylsulfonyl)-1H-indazol-4-yl)pyrimidine-2,4-diamine]	< 50 nM
FC(F)(F)c1cnc(Nc2ccc3c4c2cnn4CCCO3)nc1NC1CC1 [Example 160, N^4-cyclopropyl-N^2-(9-oxa-1,2-diazatricyclo[6.4.1.04,13]trideca-2,4,6,8(13)-tetraen-5-yl)-5-(trifluoromethyl)pyrimidine-2,4-diamine]	< 50 nM
C[C@]1(n2ncc3c(Nc4ncc(C(F)(F)F)c(NC5CC5)n4)cccc32)CCOC1=O [Example 167, (S)-3-(4-((4-(cyclopropylamino)-5-(trifluoromethyl)pyrimidin-2-yl)amino)-1H-indazol-1-yl)-3-methyldihydrofuran-2(3H)-one]	< 50 nM
CNc1nc(Nc2ccc3c4c2cnn4CCCO3)ncc1C(F)(F)F [Example 161]	< 50 nM
CNc1nc(Nc2ccc(OC)c3[nH]ncc23)ncc1C(F)(F)F [Example 28, N2-(7-methoxy-1H-indazol-4-yl)-N4-methyl-5-(trifluoromethyl)pyrimidine-2,4-diamine]	< 50 nM
CCOc1nc(Nc2cccc3c2cnn3C(C)(C)C#N)nc2[nH]cc(Cl)c12 [Example 162, 2-[4-[(5-chloro-4-ethoxy-7H-pyrrolo[2,3-d]pyrimidin-2-yl)amino]indazol-1-yl]-2-methyl-propanenitrile]	< 50 nM
CNc1nc(Nc2nn(C)c3ccccc23)ncc1C(F)(F)F [Example 67, N4-methyl-N2-(1-methyl-1H-indazol-3-yl)-5-(trifluoromethyl)pyrimidine-2,4-diamine]	≥ 200 nM
CNc1nc(Nc2cc(Cl)cc3c2cnn3CC#N)ncc1C(F)(F)F [Example 92, 2-(6-chloro-4-((4-(methylamino)-5-(trifluoromethyl)pyrimidin-2-yl)amino)-1H-indazol-1-yl)acetonitrile]	< 50 nM
CNc1nc(Nc2ccc3c(Br)nn(C)c3c2)ncc1C(F)(F)F [Example 10, N^2-(3-bromo-1-methyl-1H-indazol-6-yl)-N^4-methyl-5-(trifluoromethyl) pyrimidine-2,4-diamine]	< 50 nM
CNc1nc(Nc2ccc3c(C#N)nn(C)c3c2)ncc1C(F)(F)F [Example 11, 1-methyl-6-((4-(methylamino)-5-(trifluoromethyl)pyrimidin-2-yl)amino)-1H-indazole-3-carbonitrile]	< 50 nM
CNc1nc(Nc2cccc3c2cnn3CC#N)ncc1C(F)(F)F [Example 30, 2-(4-((4-(methylamino)-5-(trifluoromethyl)pyrimidin-2-yl)amino)-1H-indazol-1-yl)acetonitrile]	< 50 nM
CNc1nc(Nc2cc3nn(C)cc3cc2C)ncc1C(F)(F)F [Example 18, N2-(2,5-dimethyl-2H-indazol-6-yl)-N4-methyl-5-(trifluoromethyl)pyrimidine-2,4-diamine]	50 to 200 nM
CC(C)S(=O)(=O)CCn1ncc2c(Nc3ncc(C(F)(F)F)c(NC4CC4)n3)cccc21 [Example 194, N4-cyclopropyl-N^2-(1-(2-(isopropylsulfonyl)ethyl)-1H-indazol-4-yl)-5-(trifluoromethyl)pyrimidine-2,4-diamine]	< 50 nM
CNc1nc(Nc2c(C)ccc3c2cnn3C)ncc1C(F)(F)F [Example 36, N2-(1,5-dimethyl-1H-indazol-4-yl)-N4-methyl-5-(trifluoromethyl)pyrimidine-2,4-diamine]	50 to 200 nM
CNc1nc(Nc2ccc(C)c3[nH]ncc23)ncc1C(F)(F)F [Example 26, N4-methyl-N2-(7-methyl-1H-indazol-4-yl)-5-(trifluoromethyl)pyrimidine-2,4-diamine]	< 50 nM
Cc1n[nH]c2nc(Nc3cccc4c3cnn4CCS(C)(=O)=O)nc(NC3CC3)c12 [Example 182, N^4-cyclopropyl-3-methyl-N^6-[1-(2-methylsulfonylethyl)indazol-4-yl]-1H-pyrazolo[3,4-d]pyrimidine-4,6-diamine]	< 50 nM
CC(C)(O)Cn1ncc2c(Nc3ncc(C(F)(F)F)c(NC4CC4)n3)ccnc21 [Example 201, 1-(4-((4-(cyclopropylamino)-5-(trifluoromethyl)pyrimidin-2-yl)amino)-1H-pyrazolo[3,4-b]pyridin-1-yl)-2-methylpropan-2-ol]	< 50 nM
CNc1nc(Nc2cc(C)cc3[nH]ncc23)ncc1C(F)(F)F [Example 24, N4-methyl-N2-(6-methyl-1H-indazol-4-yl)-5-(trifluoromethyl)pyrimidine-2,4-diamine]	< 50 nM
COCCNc1nc(Nc2cccc3c2cnn3S(=O)(=O)C2CC2)ncc1C(F)(F)F [Example 145, N^2-(1-cyclopropylsulfonylindazol-4-yl)-N^4-(2-methoxyethyl)-5-(trifluoromethyl) pyrimidine-2,4-diamine]	< 50 nM
CNc1nc(Nc2ccc(CCC(=O)N3CCOCC3)c3[nH]ncc23)ncc1C(F)(F)F [Example 57, 3-(4-((4-(methylamino)-5-(trifluoromethyl)pyrimidin-2-yl)amino)-1H-indazol-7-yl)-1-morpholinopropan-1-one]	< 50 nM
CCNc1nc(Nc2cccc3c2cnn3C)ncc1C(F)(F)F [Example 69, N4-ethyl-N2-(1-methyl-1H-indazol-4-yl)-5-(trifluoromethyl)pyrimidine-2,4-diamine]	< 50 nM
CC(C)(O)Cn1ncc2c(Nc3ncc(C(F)F)c(NC4CC4)n3)ccc(F)c21 [Example 175, 1-[4-[[4-(cyclopropylamino)-5-(difluoromethyl)pyrimidin-2-yl]amino]-7-fluoro-indazol-1-yl]-2-methyl-propan-2-ol]	< 50 nM
CNc1nc(Nc2cnn3ccccc23)ncc1C(F)(F)F [Example 61, N4-methyl-N2-(pyrazolo[1,5-a]pyridin-3-yl)-5-(trifluoromethyl)pyrimidine-2,4-diamine]	< 50 nM
CNc1nc(Nc2cc(CCC(=O)N3CCOCC3)cc3c2cnn3C)ncc1C(F)(F)F [Example 54, 3-(1-methyl-4-((4-(methylamino)-5-(trifluoromethyl)pyrimidin-2-yl)amino)-1H-indazol-6-yl)-1-morpholinopropan-1-one]	50 to 200 nM
